Values after ≈ are worked out from the molar mass of the structure shown.
Tests used:
Influenza B virus [1] = assay: Antiviral activity against influenza B virus assessed as cell viability by cell based MTS assay; format: functional, organism-based
Influenza A virus [2] = assay: Antiviral activity against influenza A virus H1N1 assessed as cell viability by cell based MTS assay; format: functional, organism-based
Influenza B virus [3] = assay: Antiviral activity against influenza B virus assessed as inhibition of viral induced cytopathic effect; format: functional, organism-based
Staphylococcus aureus [4] = assay: Antibacterial activity against methicillin-[…] Staphylococcus aureus ATCC 33591 by broth microdilution method; format: functional
[5] = tested on: Staphylococcus epidermidis; assay: Antibacterial activity against biofilm positive Staphylococcus epidermidis ATCC 35984; format: functional
[6] = tested on: Staphylococcus epidermidis; assay: Antibacterial activity against Staphylococcus epidermidis by broth microdilution method; format: functional
Enterococcus faecalis [7] = assay: Antibacterial activity against vancomycin and teicoplanin-resistant Enterococcus faecalis 15376 expressing VanA gene by broth microdilution method; format: functional
Enterococcus faecalis [8] = assay: Antibacterial activity against vancomycin-resistant and teicoplanin-sensitive Enterococcus faecalis ATCC 5129 expressing VanB gene by broth microdilution method; format: functional
Bacillus subtilis = assay: Antibacterial activity against Bacillus subtilis ATCC 6633 by broth microdilution method; format: functional
Enterococcus faecalis [9] = assay: Antibacterial activity against vancomycin and teicoplanin-sensitive Enterococcus faecalis ATCC 29212 by broth microdilution method; format: functional
Staphylococcus aureus [10] = assay: Antibacterial activity against methicillin-[…] Staphylococcus aureus ATCC 29213 by broth microdilution method; format: functional
Influenza A virus [11] = assay: Antiviral activity against Influenza A virus H3N2 assessed as inhibition of viral induced cytopathic effect; format: functional, organism-based
Influenza A virus [12] = assay: Antiviral activity against influenza A virus H1N1 assessed as inhibition of viral induced cytopathic effect; format: functional, organism-based
Influenza A virus [13] = assay: Antiviral activity against Influenza A virus H3N2 assessed as cell viability by cell based MTS assay; format: functional, organism-based

Compound	EC50 (Influenza B virus [1])	EC50 (Influenza A virus [2])	EC50 (Influenza B virus [3])	MBC (Staphylococcus aureus [4])	MIC (Staphylococcus aureus [4])	MBC [5]	MIC [5]	MBC [6]	MIC [6]	MIC (Enterococcus faecalis [7])	MBC (Enterococcus faecalis [8])	MIC (Enterococcus faecalis [8])	MBC (Bacillus subtilis)	MIC (Bacillus subtilis)	MBC (Enterococcus faecalis [9])	MIC (Enterococcus faecalis [9])	MBC (Staphylococcus aureus [10])	EC50 (Influenza A virus [11])	EC50 (Influenza A virus [12])	EC50 (Influenza A virus [13])	further results
NC(=O)c1ncn([C@@H]2O[C@H](CO)[C@@H](O)[C@H]2O)n1 [RIBAVIRIN]	4.7 µM	11 µM	4 µM																		
COC(=O)[C@H]1NC(=O)[C@H]2NC(=O)[C@H](NC(=O)[C@@H]3NC(=O)[C@H]4NC(=O)[C@H](NC(=O)[C@H](N=[N+]=[N-])c5ccc(O)c(c5)Oc5cc4cc(O)c5C)[C@H](O)c4ccc(cc4)Oc4cc3cc(c4O)Oc3ccc(cc3)[C@H]2O)c2ccc(O)c(c2)-c2c(O)cc(O)cc21 [listing 1 of 2 here]				2 µg/mL (≈ 1.67 µM)	1 µg/mL (≈ 0.833 µM)	64 µg/mL (≈ 53.3 µM)	32 µg/mL (≈ 26.7 µM)	8 µg/mL (≈ 6.67 µM)	4 µg/mL (≈ 3.33 µM)	> 256 µg/mL	128 µg/mL (≈ 107 µM)	64 µg/mL (≈ 53.3 µM)	4 µg/mL (≈ 3.33 µM)	1 µg/mL (≈ 0.833 µM)	16 µg/mL (≈ 13.3 µM)	8 µg/mL (≈ 6.67 µM)	2 µg/mL (≈ 1.67 µM)				MIC (Staphylococcus aureus [10]): 2 µg/mL (≈ 1.67 µM)
COC(=O)[C@@H]1NC(=O)[C@H]2NC(=O)[C@H](NC(=O)[C@@H]3NC(=O)[C@H]4NC(=O)[C@H](NC(=O)[C@H](n5cc(CO[C@H]6O[C@H](COC(C)=O)[C@@H](OC(C)=O)[C@H](OC(C)=O)[C@@H]6OC(C)=O)nn5)c5ccc(O)c(c5)Oc5cc4cc(O)c5C)[C@H](O)c4ccc(cc4)Oc4cc3cc(c4O)Oc3ccc(cc3)[C@H]2O)c2ccc(O)c(c2)-c2c(O)cc(O)cc21	> 100 µM	5 µM	> 100 µM	4 µg/mL (≈ 2.52 µM)	2 µg/mL (≈ 1.26 µM)	4 µg/mL (≈ 2.52 µM)	4 µg/mL (≈ 2.52 µM)	4 µg/mL (≈ 2.52 µM)	2 µg/mL (≈ 1.26 µM)	2 µg/mL (≈ 1.26 µM)	256 µg/mL (≈ 161 µM)	8 µg/mL (≈ 5.04 µM)	8 µg/mL (≈ 5.04 µM)	4 µg/mL (≈ 2.52 µM)	128 µg/mL (≈ 80.7 µM)	4 µg/mL (≈ 2.52 µM)	4 µg/mL (≈ 2.52 µM)	> 100 µM	4 µM	> 100 µM	MBC (Enterococcus faecalis [7]): 128 µg/mL (≈ 80.7 µM); MIC (Staphylococcus aureus [10]): 2 µg/mL (≈ 1.26 µM)
COC(=O)[C@H]1NC(=O)[C@H]2NC(=O)[C@H](NC(=O)[C@@H]3NC(=O)[C@H]4NC(=O)[C@H](NC(=O)[C@H](n5cc(CO[C@@H]6O[C@@H](C)[C@H](O)[C@@H](O)[C@H]6O)nn5)c5ccc(O)c(c5)Oc5cc4cc(O)c5C)[C@H](O)c4ccc(cc4)Oc4cc3cc(c4O)Oc3ccc(cc3)[C@H]2O)c2ccc(O)c(c2)-c2c(O)cc(O)cc21				16 µg/mL (≈ 11.4 µM)	8 µg/mL (≈ 5.7 µM)	16 µg/mL (≈ 11.4 µM)	16 µg/mL (≈ 11.4 µM)	32 µg/mL (≈ 22.8 µM)	16 µg/mL (≈ 11.4 µM)	16 µg/mL (≈ 11.4 µM)	128 µg/mL (≈ 91.3 µM)	64 µg/mL (≈ 45.6 µM)	16 µg/mL (≈ 11.4 µM)	16 µg/mL (≈ 11.4 µM)	256 µg/mL (≈ 183 µM)	32 µg/mL (≈ 22.8 µM)	8 µg/mL (≈ 5.7 µM)				MBC (Enterococcus faecalis [7]): 256 µg/mL (≈ 183 µM); MIC (Staphylococcus aureus [10]): 8 µg/mL (≈ 5.7 µM)
COC(=O)[C@@H]1NC(=O)[C@H]2NC(=O)[C@H](NC(=O)[C@@H]3NC(=O)[C@H]4NC(=O)[C@H](NC(=O)[C@H](n5cc(CO[C@H]6O[C@H](COC(C)=O)[C@@H](OC(C)=O)[C@H](OC(C)=O)[C@H]6NC(C)=O)nn5)c5ccc(O)c(c5)Oc5cc4cc(O)c5C)[C@H](O)c4ccc(cc4)Oc4cc3cc(c4O)Oc3ccc(cc3)[C@H]2O)c2ccc(O)c(c2)-c2c(O)cc(O)cc21	> 100 µM	5.8 µM	> 100 µM	64 µg/mL (≈ 40.4 µM)	1 µg/mL (≈ 0.631 µM)	8 µg/mL (≈ 5.05 µM)	8 µg/mL (≈ 5.05 µM)	4 µg/mL (≈ 2.52 µM)	4 µg/mL (≈ 2.52 µM)	2 µg/mL (≈ 1.26 µM)	256 µg/mL (≈ 161 µM)	4 µg/mL (≈ 2.52 µM)	8 µg/mL (≈ 5.05 µM)	2 µg/mL (≈ 1.26 µM)	256 µg/mL (≈ 161 µM)	4 µg/mL (≈ 2.52 µM)	256 µg/mL (≈ 161 µM)	> 100 µM	8 µM	> 100 µM	MBC (Enterococcus faecalis [7]): 256 µg/mL (≈ 161 µM); MIC (Staphylococcus aureus [10]): 0.5 µg/mL (≈ 0.315 µM)
CCOC(=O)C1=C[C@@H](OC(CC)CC)[C@H](NC(C)=O)[C@@H](N)C1 [OSELTAMIVIR]	27 µM	11 µM	23 µM															32 µM	12 µM	38 µM	
COC(=O)[C@@H]1NC(=O)[C@H]2NC(=O)[C@H](NC(=O)[C@@H]3NC(=O)[C@H]4NC(=O)[C@H](NC(=O)[C@H](n5cc(CO[C@H]6O[C@H](COC(C)=O)[C@@H](OC(C)=O)[C@H](OC(C)=O)[C@H]6OC(C)=O)nn5)c5ccc(O)c(c5)Oc5cc4cc(O)c5C)[C@H](O)c4ccc(cc4)Oc4cc3cc(c4O)Oc3ccc(cc3)[C@H]2O)c2ccc(O)c(c2)-c2c(O)cc(O)cc21	> 100 µM	8.2 µM	> 100 µM	8 µg/mL (≈ 5.04 µM)	4 µg/mL (≈ 2.52 µM)	16 µg/mL (≈ 10.1 µM)	8 µg/mL (≈ 5.04 µM)	16 µg/mL (≈ 10.1 µM)	16 µg/mL (≈ 10.1 µM)	8 µg/mL (≈ 5.04 µM)	256 µg/mL (≈ 161 µM)	16 µg/mL (≈ 10.1 µM)	16 µg/mL (≈ 10.1 µM)	8 µg/mL (≈ 5.04 µM)	256 µg/mL (≈ 161 µM)	8 µg/mL (≈ 5.04 µM)	8 µg/mL (≈ 5.04 µM)	> 100 µM	9.5 µM	> 100 µM	MBC (Enterococcus faecalis [7]): 256 µg/mL (≈ 161 µM); MIC (Staphylococcus aureus [10]): 4 µg/mL (≈ 2.52 µM)
Cc1c(O)cc2cc1Oc1cc(ccc1O)[C@@H](N)C(=O)N[C@H]1C(=O)N[C@@H]2C(=O)N[C@H]2C(=O)N[C@H]3C(=O)N[C@H](C(=O)N[C@@H](C(=O)O)c4cc(O)cc(O[C@H]5O[C@H](CO)[C@@H](O)[C@H](O)[C@@H]5O)c4-c4cc3ccc4O)[C@H](O[C@H]3C[C@@H](N)[C@@H](O)[C@H](C)O3)c3ccc(cc3)Oc3cc2cc(c3O[C@H]2O[C@@H](CO[C@H]3O[C@H](C)[C@@H](O)[C@H](O)[C@@H]3O)[C@H](O)[C@@H](O)[C@@H]2O[C@H]2O[C@H](CO)[C@@H](O)[C@H](O)[C@@H]2O[C@H]2O[C@H](CO)[C@@H](O)[C@@H]2O)Oc2ccc(cc2)[C@H]1O [RISTOCETIN]				64 µg/mL (≈ 31.2 µM)	16 µg/mL (≈ 7.79 µM)	64 µg/mL (≈ 31.2 µM)	32 µg/mL (≈ 15.6 µM)	16 µg/mL (≈ 7.79 µM)	16 µg/mL (≈ 7.79 µM)	128 µg/mL (≈ 62.3 µM)	256 µg/mL (≈ 125 µM)	128 µg/mL (≈ 62.3 µM)	4 µg/mL (≈ 1.95 µM)	2 µg/mL (≈ 0.974 µM)	256 µg/mL (≈ 125 µM)	4 µg/mL (≈ 1.95 µM)	64 µg/mL (≈ 31.2 µM)				MBC (Enterococcus faecalis [7]): 256 µg/mL (≈ 125 µM); MIC (Staphylococcus aureus [10]): 16 µg/mL (≈ 7.79 µM)
CC(N)C12CC3CC(CC(C3)C1)C2 (centres undefined) [RIMANTADINE]	> 500 µM	283 µM	> 500 µM															4 µM	224 µM	5.6 µM	
COC(=O)[C@H]1NC(=O)[C@H]2NC(=O)[C@H](NC(=O)[C@@H]3NC(=O)[C@H]4NC(=O)[C@H](NC(=O)[C@H](N=[N+]=[N-])c5ccc(O)c(c5)Oc5cc4cc(O)c5C)[C@H](O)c4ccc(cc4)Oc4cc3cc(c4O)Oc3ccc(cc3)[C@H]2O)c2ccc(O)c(c2)-c2c(O)cc(O)cc21 [listing 2 of 2 here]	> 100 µM		> 100 µM															≥ 20 µM	9.5 µM	≥ 9 µM	
NC12CC3CC(CC(C3)C1)C2 [AMANTADINE]	> 500 µM	19 µM	> 500 µM															7 µM	20 µM	9.2 µM	

— ChEMBL document CHEMBL1158551, “Click reaction synthesis of carbohydrate derivatives from ristocetin aglycon with antibacterial and antiviral activity” (Bioorg Med Chem Lett, 2010)
